Read-outs that look alike come from different tables or passages of the source. One block for each compound: values may come before it.
Assays:
synthèse de la mélanine = test: Inhibition of melanin synthesis in keratinocyte/melanocyte coculture (ratio of thiouracil to leucine incorporation); assay type: cell-based; settings: concentration at which 50 % of melanin synthesis is inhibited; thiouracil/leucine incorporation relative to 100 % of control
Description: (§1) Ce test est réalisé sur coculture de kératinocytes et de mélanocytes.
(§2) Pour le composé testé, il a été déterminé : • la cytotoxicité, en estimant l'incorporation de la leucine, • l'activité inhibitrice sur la synthèse de la mélanine, en estimant le rapport de l'incorporation de thiouracile à l'incorporation de leucine, rapporté à 100 % du témoin (le témoin correspond au test réalisé sans composé à testé). Les valeurs des IC50 (concentration pour laquelle 50 % de la synthèse de la mélanine est inhibée) ont été déterminées.

[1] = system: coculture de kératinocytes et de mélanocytes; test: Cytotoxicity on keratinocyte/melanocyte coculture (leucine incorporation); settings: coculture of keratinocytes and melanocytes
Description: as §1, §2

[2] = system: modèle de peau reconstruite complet comprenant un derme vivant; test: Pigmentation in complete reconstructed skin model with living dermis, pigmentation induced by forskolin; assay type: cell-based
Description: L'activité du composé 1 a été évaluée sur le modèle de peau reconstruite complet décrit dans le brevet FR2928654 selon le procédé décrit dans le brevet FR2930644.
Le composé 1 a été ajouté au milieu de culture pendant une période de 16 jours à partir du 2eme jour de la phase d'émersion. La pigmentation a été induite par la Forskoline ajoutée pendant une période de 14 jours à partir du 4eme jour d'émersion (condition contrôle positif pigmenté).
Le composé 1 a montré une activité dépigmentante sur les paramètres suivants : • Luminance (clarté de la peau) plus la valeur de luminance est élevée plus l'échantillon de peau est clair : • augmentation significative de 6 points de la luminance pour le composé1 (Valeur de L contrôle positif = 63, valeur de L traitement par molécule 1 à 1 mM = 69) • Quantification de la mélanine par analyse d'images sur des coupes colorées au Fontana Masson (coloration argentique des grains de mélanine) : réduction de 60% de la quantité de mélanine par le composé 1 (contrôle positif = valeur arbitraire de 100%, composé 1 à 1 mM = 39,48%).

[3] = system: coculture de kératinocytes et de mélanocytes
Description: as §1, §2

IC50 (synthèse de la mélanine): > 500 µM
Structure (SMILES): OC[C@H]1O[C@@H](Oc2ccc(O)cc2)[C@H](O)[C@@H](O)[C@@H]1O [Arbutine]
Cytotoxicité sur co-culture [1]: Non cytotoxique

Structure (SMILES): COc1cc(CCC(O)CC2OC[C@@H](O)[C@H](O)[C@H]2O)ccc1O (stereo partly drawn) [Composé 1, (3R,4S,5R)-2-[2-hydroxy-4-(4-hydroxy-3-methoxyphenyl)butyl]tetrahydro-2H-pyran-3,4,5-triol]
valeur de L (luminance) ([2]; 1 mM, 16 days in culture medium, forskolin-induced pigmentation, higher = lighter skin): 69
augmentation de la luminance ([2]; 1 mM, 16 days in culture medium, versus forskolin positive control (L = 63)): 6 points
quantité de mélanine (contrôle positif = valeur arbitraire de 100%) ([2]; 1 mM, image analysis of Fontana Masson stained sections): 39,48%
réduction de la quantité de mélanine ([2]; 1 mM, image analysis of Fontana Masson stained sections, versus positive control): 60%
effet toxique ([2]; histology (morphology of reconstructed skin) and number of melanocytes (TRP1 labelling, DOPA reaction on epidermal sheet)): absence d'effet toxique

IC50 (synthèse de la mélanine): > 500 µM
Structure (SMILES): O=c1cc(CO)occ1O [Acide kojique]
Cytotoxicité sur co-culture [1]: 100 µM

IC50 (synthèse de la mélanine): 145 µM
Structure (SMILES): Oc1ccc(CCC(O)CC2OC[C@@H](O)[C@H](O)[C@H]2O)c(O)c1 (stereo partly drawn) [Composé 11, (3R,4S,5R)-2-[2-hydroxy-4-(2,4-di-hydroxy-phenyl)butyl]tetrahydro-2H-pyran-3,4,5-triol]
Cytotoxicité sur co-culture [3]: Non cytotoxique

Reference: patent EP2935231B1, “C-XYLOSIDE COMPOUNDS, COMPOSITIONS AND USE THEREOF TO DEPIGMENT THE SKIN” (L'OREAL, priority 2012, dated 2014)
